Four molecules from ChEMBL document CHEMBL1944514, “Fluorescence detection of single nucleotide polymorphisms using nucleic acid probe containing tricyclic base-linked acyclonucleoside” (Bioorg Med Chem Lett, 2012) can be followed below.

The term ΔTm denotes the change in melting temperature against a reference sample.

What all share (type): nucleic-acid assay
Experiment [1] has as its system Nucleic Acid. The experiment can be described thus: Binding affinity to 3'-r(CUUCCAGUUCCAUAGAGA)-5' RNA assessed as change in melting temperature by spectrophotometry.
The subject of experiment [2] is Nucleic Acid. Nature of the experiment: Binding affinity to 3'-r(CUUCCAGUUUCAUAGAGA)-5' RNA assessed as change in melting temperature by spectrophotometry.
For experiment [3], the system named is Nucleic Acid. Nature of the experiment: Binding affinity to 3'-r(CUUCCAGUUACAUAGAGA)-5' RNA assessed as fluorescence quenching by spectrophotometry.
Experiment [4] deals with Nucleic Acid. The experiment can be described thus: Binding affinity to 3'-r(CUUCCAGUUUCAUAGAGA)-5' RNA assessed as fluorescence quenching by spectrophotometry.
For experiment [5], the system named is Nucleic Acid. Nature of the experiment: Binding affinity to 3'-r(CUUCCAGUUGCAUAGAGA)-5' RNA assessed as change in melting temperature by spectrophotometry.
In experiment [6] the test system is Nucleic Acid. Nature of the experiment: Binding affinity to 3'-r(CUUCCAGUUCCAUAGAGA)-5' RNA assessed as fluorescence quenching by spectrophotometry.
Experiment [7] relates to Nucleic Acid. The experiment can be described thus: Binding affinity to 3'-r(CUUCCAGUUACAUAGAGA)-5' RNA assessed as change in melting temperature by spectrophotometry.
The subject of experiment [8] is Nucleic Acid. Nature of the experiment: Binding affinity to 3'-r(CUUCCAGUUGCAUAGAGA)-5' RNA assessed as fluorescence quenching by spectrophotometry.

Active and inactive are the calls of the source. The rule behind the calls is not given here.

Consider `Cc1cn([C@H]2C[C@H](OP(=O)(O)OC[C@H]3O[C@@H](n4ccc(N)nc4=O)C[C@@H]3OP(=O)(O)OC[C@H]3O[C@@H](n4cnc5c(N)ncnc54)C[C@@H]3OP(=O)(O)OC[C@H]3O[C@@H](n4cnc5c(N)ncnc54)C[C@@H]3OP(=O)(O)OC[C@H](Cn3cnc4cc5c(N)nc(N)nc5nc43)OP(=O)(O)OC[C@H]3O[C@@H](n4cc(C)c(=O)[nH]c4=O)C[C@@H]3OP(=O)(O)OC[C@H]3O[C@@H](n4cnc5c(=O)[nH]c(N)nc54)C[C@@H]3OP(=O)(O)CC[C@H]3O[C@@H](n4cc(C)c(=O)[nH]c4=O)C[C@@H]3OP(=O)(O)OC[C@H]3O[C@@H](n4cnc5c(N)ncnc54)C[C@@H]3OP(=O)(O)OC[C@H]3O[C@@H](n4cc(C)c(=O)[nH]c4=O)C[C@@H]3OP(=O)(O)OC[C@H]3O[C@@H](n4ccc(N)nc4=O)C[C@@H]3OP(=O)(O)OC[C@H]3O[C@@H](n4cc(C)c(=O)[nH]c4=O)C[C@@H]3OP(=O)(O)OC[C@H]3O[C@@H](n4ccc(N)nc4=O)C[C@@H]3OP(=O)(O)OC[C@H]3O[C@@H](n4cc(C)c(=O)[nH]c4=O)C[C@@H]3O)[C@@H](COP(=O)(O)O[C@H]3C[C@H](n4cnc5c(=O)[nH]c(N)nc54)O[C@@H]3COP(=O)(O)O[C@H]3C[C@H](n4cnc5c(=O)[nH]c(N)nc54)O[C@@H]3COP(=O)(O)O[C@H]3C[C@H](n4cnc5c(N)ncnc54)O[C@@H]3COP(=O)(O)O[C@H]3C[C@H](n4cnc5c(N)ncnc54)O[C@@H]3COP(=O)(O)O[C@H]3C[C@H](n4cnc5c(=O)[nH]c(N)nc54)O[C@@H]3CO)O2)c(=O)nc1N`, for which the figures for the ΔTm with Nucleic Acid [1], in the experiment on Nucleic Acid [2] and with Nucleic Acid [5] were -3.5 °C, -1.8 °C and -1.9 °C, respectively. The outcome with Nucleic Acid [3], with Nucleic Acid [7] and in the experiment on Nucleic Acid [8] was inactive. Moreover, the outcome with Nucleic Acid [4] and in the experiment on Nucleic Acid [6] was Active.

As for `Cc1cn([C@H]2C[C@H](OP(=O)(O)OC[C@H]3O[C@@H](n4ccc(N)nc4=O)C[C@@H]3OP(=O)(O)OC[C@H]3O[C@@H](n4cnc5c(N)ncnc54)C[C@@H]3OP(=O)(O)OC[C@H]3O[C@@H](n4cnc5c(N)ncnc54)C[C@@H]3OP(=O)(O)OC[C@H](Cn3cnc4cc5c(N)nc(N)nc5nc43)OP(=O)(O)OC[C@H]3O[C@@H](n4cnc5c(=O)[nH]c(N)nc54)C[C@@H]3OP(=O)(O)OC[C@H]3O[C@@H](n4cnc5c(=O)[nH]c(N)nc54)C[C@@H]3OP(=O)(O)CC[C@H]3O[C@@H](n4cc(C)c(=O)[nH]c4=O)C[C@@H]3OP(=O)(O)OC[C@H]3O[C@@H](n4cnc5c(N)ncnc54)C[C@@H]3OP(=O)(O)OC[C@H]3O[C@@H](n4cc(C)c(=O)[nH]c4=O)C[C@@H]3OP(=O)(O)OC[C@H]3O[C@@H](n4ccc(N)nc4=O)C[C@@H]3OP(=O)(O)OC[C@H]3O[C@@H](n4cc(C)c(=O)[nH]c4=O)C[C@@H]3OP(=O)(O)OC[C@H]3O[C@@H](n4ccc(N)nc4=O)C[C@@H]3OP(=O)(O)OC[C@H]3O[C@@H](n4cc(C)c(=O)[nH]c4=O)C[C@@H]3O)[C@@H](COP(=O)(O)O[C@H]3C[C@H](n4cnc5c(=O)[nH]c(N)nc54)O[C@@H]3COP(=O)(O)O[C@H]3C[C@H](n4cnc5c(=O)[nH]c(N)nc54)O[C@@H]3COP(=O)(O)O[C@H]3C[C@H](n4cnc5c(N)ncnc54)O[C@@H]3COP(=O)(O)O[C@H]3C[C@H](n4cnc5c(N)ncnc54)O[C@@H]3COP(=O)(O)O[C@H]3C[C@H](n4cnc5c(=O)[nH]c(N)nc54)O[C@@H]3CO)O2)c(=O)nc1N`, the outcome with Nucleic Acid [1] and in the experiment on Nucleic Acid [6] was inactive. The ΔTm with Nucleic Acid [2] is -4.6 °C; in the experiment on Nucleic Acid [5], -4.3 °C; in the experiment with Nucleic Acid [7] it was -5.9 °C. Further, the outcome in the experiment with Nucleic Acid [3], in the experiment on Nucleic Acid [4] and with Nucleic Acid [8] was Active.

In the case of `Cc1cn([C@H]2C[C@H](OP(=O)(O)OC[C@H]3O[C@@H](n4ccc(N)nc4=O)C[C@@H]3OP(=O)(O)OC[C@H]3O[C@@H](n4cnc5c(N)ncnc54)C[C@@H]3OP(=O)(O)OC[C@H]3O[C@@H](n4cnc5c(N)ncnc54)C[C@@H]3OP(=O)(O)OC[C@H]3O[C@@H](n4cnc5c(=O)[nH]c(N)nc54)C[C@@H]3OP(=O)(O)OC[C@H](Cn3cnc4cc5c(N)nc(N)nc5nc43)OP(=O)(O)OC[C@H]3O[C@@H](n4cnc5c(=O)[nH]c(N)nc54)C[C@@H]3OP(=O)(O)CC[C@H]3O[C@@H](n4cc(C)c(=O)[nH]c4=O)C[C@@H]3OP(=O)(O)OC[C@H]3O[C@@H](n4cnc5c(N)ncnc54)C[C@@H]3OP(=O)(O)OC[C@H]3O[C@@H](n4cc(C)c(=O)[nH]c4=O)C[C@@H]3OP(=O)(O)OC[C@H]3O[C@@H](n4ccc(N)nc4=O)C[C@@H]3OP(=O)(O)OC[C@H]3O[C@@H](n4cc(C)c(=O)[nH]c4=O)C[C@@H]3OP(=O)(O)OC[C@H]3O[C@@H](n4ccc(N)nc4=O)C[C@@H]3OP(=O)(O)OC[C@H]3O[C@@H](n4cc(C)c(=O)[nH]c4=O)C[C@@H]3O)[C@@H](COP(=O)(O)O[C@H]3C[C@H](n4cnc5c(=O)[nH]c(N)nc54)O[C@@H]3COP(=O)(O)O[C@H]3C[C@H](n4cnc5c(=O)[nH]c(N)nc54)O[C@@H]3COP(=O)(O)O[C@H]3C[C@H](n4cnc5c(N)ncnc54)O[C@@H]3COP(=O)(O)O[C@H]3C[C@H](n4cnc5c(N)ncnc54)O[C@@H]3COP(=O)(O)O[C@H]3C[C@H](n4cnc5c(=O)[nH]c(N)nc54)O[C@@H]3CO)O2)c(=O)nc1N`, the outcome with Nucleic Acid [1] and in the experiment on Nucleic Acid [6] was inactive. Further, the results for the thermal shift (ΔTm) in the experiment on Nucleic Acid [2], in the experiment with Nucleic Acid [5] and in the experiment with Nucleic Acid [7] were -2.9 °C, -3 °C and -3.1 °C, respectively. The outcome in the experiment on Nucleic Acid [3], in the experiment on Nucleic Acid [4] and with Nucleic Acid [8] was Active.

With `Cc1cn([C@H]2C[C@H](OP(=O)(O)OC[C@H]3O[C@@H](n4ccc(N)nc4=O)C[C@@H]3OP(=O)(O)OC[C@H]3O[C@@H](n4cnc5c(N)ncnc54)C[C@@H]3OP(=O)(O)OC[C@H]3O[C@@H](n4cnc5c(N)ncnc54)C[C@@H]3OP(=O)(O)OC[C@H]3O[C@@H](n4ccc(N)nc4=O)C[C@@H]3OP(=O)(O)OC[C@H](Cn3cnc4cc5c(N)nc(N)nc5nc43)OP(=O)(O)OC[C@H]3O[C@@H](n4cnc5c(=O)[nH]c(N)nc54)C[C@@H]3OP(=O)(O)CC[C@H]3O[C@@H](n4cc(C)c(=O)[nH]c4=O)C[C@@H]3OP(=O)(O)OC[C@H]3O[C@@H](n4cnc5c(N)ncnc54)C[C@@H]3OP(=O)(O)OC[C@H]3O[C@@H](n4cc(C)c(=O)[nH]c4=O)C[C@@H]3OP(=O)(O)OC[C@H]3O[C@@H](n4ccc(N)nc4=O)C[C@@H]3OP(=O)(O)OC[C@H]3O[C@@H](n4cc(C)c(=O)[nH]c4=O)C[C@@H]3OP(=O)(O)OC[C@H]3O[C@@H](n4ccc(N)nc4=O)C[C@@H]3OP(=O)(O)OC[C@H]3O[C@@H](n4cc(C)c(=O)[nH]c4=O)C[C@@H]3O)[C@@H](COP(=O)(O)O[C@H]3C[C@H](n4cnc5c(=O)[nH]c(N)nc54)O[C@@H]3COP(=O)(O)O[C@H]3C[C@H](n4cnc5c(=O)[nH]c(N)nc54)O[C@@H]3COP(=O)(O)O[C@H]3C[C@H](n4cnc5c(N)ncnc54)O[C@@H]3COP(=O)(O)O[C@H]3C[C@H](n4cnc5c(N)ncnc54)O[C@@H]3COP(=O)(O)O[C@H]3C[C@H](n4cnc5c(=O)[nH]c(N)nc54)O[C@@H]3CO)O2)c(=O)nc1N`, the ΔTm with Nucleic Acid [1] is -3.2 °C; in the experiment on Nucleic Acid [2] it was -1.1 °C; in the experiment with Nucleic Acid [7], -3.9 °C. Besides, the outcome with Nucleic Acid [3], with Nucleic Acid [4] and in the experiment on Nucleic Acid [6] was Active. For the same molecule, the result with Nucleic Acid [5] and with Nucleic Acid [8] was inactive.
